Reference: US20060257539A1 (priority 2005, published 2006)

What was measured:
[1] = comparative antimicrobial activity in various foodstuff or media (summary table); design: key: + means antimicrobial activity, multiple + indicates increased antimicrobial activity; ++: multiple + indicates increased antimicrobial activity; +++: multiple + indicates increased antimicrobial activity; − means no antimicrobial activity
[2] = test system: C. botulinum Toxin type A (proteolytic) spores; assay type: cell-based, Clostridium botulinum; conditions: pH 5.5
[3] = test system: C. botulinum Toxin type B (proteolytic) spores; assay type: cell-based, Clostridium botulinum; conditions: pH 5.5
[4] = test system: C. botulinum Toxin type B (non-proteolytic) spores; assay type: cell-based, Clostridium botulinum; conditions: pH 5.5
[5] = test system: C. botulinum Toxin type E spores; assay type: cell-based, Clostridium botulinum; conditions: pH 5.5
[6] = test system: all tested C. botulinum strains (spores); assay type: cell-based, Clostridium botulinum
[7] = test system: C. botulinum 33A (proteolytic) vegetative cells; assay type: cell-based, Clostridium botulinum; conditions: pH 5.5
[8] = test system: C. botulinum 53B (proteolytic) vegetative cells; assay type: cell-based, Clostridium botulinum; conditions: pH 5.5
[9] = test system: C. botulinum Alaska E (non-proteolytic) vegetative cells; assay type: cell-based, Clostridium botulinum; conditions: pH 5.5
[10] = test system: C. botulinum Beluga E (Non-proteolytic) vegetative cells; assay type: cell-based, Clostridium botulinum; conditions: pH 5.5
[11] = test system: all strains of C. botulinum tested (vegetative cells); assay type: cell-based, Clostridium botulinum
[12] = test system: C. botulinum Alaska E vegetative cells; assay type: cell-based, Clostridium botulinum
[13] = test system: C. botulinum Beluga E vegetative cells; assay type: cell-based, Clostridium botulinum
[14] = test system: C. botulinum E mixed strains vegetative cells; assay type: cell-based, Clostridium botulinum
[15] = test system: Lactococcus lactis subsp. cremoris; assay type: cell-based
[16] = test system: Lactococcus lactis subsp. cremoris; assay type: cell-based; remark: listed apart in the source
[17] = test system: Lactobacillus plantarum; assay type: cell-based
[18] = test system: Lactococcus lactis subsp. cremoris; assay type: cell-based; remark: listed apart in the source
[19] = standard plate well diffusion assay of RTD beverage; assay type: cell-based

## ε-poly-L-lysine
[1]; BHI broth
  antimicrobial activity: −
[1]; Beverages
  antimicrobial activity: +
[1]; Brain heart infusion agar (BHI)
  antimicrobial activity: −
[1]; Green beans packed in water
  antimicrobial activity: −
[1]; Hot dogs
  antimicrobial activity: −
[1]; Savory cream
  antimicrobial activity: −
[2]
  Inhibition zone against indicator C. botulinum strain Toxin type A (proteolytic): 0 mm
[3]
  Inhibition zone against indicator C. botulinum strain Toxin type B (proteolytic): 0 mm
[4]
  Inhibition zone against indicator C. botulinum strain Toxin type B (non-proteolytic): 0 mm
[5]
  Inhibition zone against indicator C. botulinum strain Toxin type E: 0 mm
[6]
  inhibition of growth of C. botulinum from spores (in words): unable to inhibit the growth of C. botulinum from spores
[7]
  Inhibition zone against indicator C. botulinum strain 33A (proteolytic): 0 mm
[8]
  Inhibition zone against indicator C. botulinum strain 53B (proteolytic): 0 mm
[9]
  Inhibition zone against indicator C. botulinum strain Alaska E (non-proteolytic): 0 mm
[10]
  Inhibition zone against indicator C. botulinum strain Beluga E (Non-proteolytic): 0 mm
[11]
  inhibition of growth of C. botulinum strains from vegetative cells (in words): did not show clear or strong inhibition
[12]
  Inhibition zone against indicator C. botulinum strain Alaska E: 0 mm
[13]
  Inhibition zone against indicator C. botulinum strain Beluga E: 0 mm
[14]
  Inhibition zone against indicator C. botulinum E mixed strains: 0 mm
[15]
  Inhibition zone: 0 mm
[16]
  effect on apparent nisin activity (in words): significantly increased
[17]
  inhibition of growth of L. plantarum (in words): very limited inhibition on the initial growth of L. plantarum
[18]
  Apparent nisin activity: 0 IU/g
  effect on measurable nisin activity in dairy product (in words): increased the measurable nisin activity
[19]; very low levels of ε-poly-L-lysine (50 ppm) added to nisin 250 IU/ml
  effect on apparent nisin activity in RTD beverage (in words): significantly increased
[19]; ε-poly-L-lysine 50 ppm alone, fruit juice-containing RTD beverage
  Inhibition zone: 0 mm
